In patent US12600709B2, “Nonpeptide somatostatin type 5 receptor agonists and uses thereof” (Crinetics Pharmaceuticals, Inc., priority 2019, dated 2026):
Like-named read-outs stand apart in the source and are kept apart here.

How the values were obtained:
[1] = biological target: T1, human somatostatin receptor subtype 5 (Homo sapiens, UniProt P35346); assay: cAMP assay for SST5R (inhibition of cAMP in CHO-K1 cells); format: cell-based; conditions: for EC50: inhibition of cAMP via human SST5 receptor, read-out: SST5 potency; for Fold selectivity for SST5 vs SST2: class symbols, SST5 receptor over SST2 receptor
T1 construct: expressed in transfected cells
T1 sequence (P35346 whole entry): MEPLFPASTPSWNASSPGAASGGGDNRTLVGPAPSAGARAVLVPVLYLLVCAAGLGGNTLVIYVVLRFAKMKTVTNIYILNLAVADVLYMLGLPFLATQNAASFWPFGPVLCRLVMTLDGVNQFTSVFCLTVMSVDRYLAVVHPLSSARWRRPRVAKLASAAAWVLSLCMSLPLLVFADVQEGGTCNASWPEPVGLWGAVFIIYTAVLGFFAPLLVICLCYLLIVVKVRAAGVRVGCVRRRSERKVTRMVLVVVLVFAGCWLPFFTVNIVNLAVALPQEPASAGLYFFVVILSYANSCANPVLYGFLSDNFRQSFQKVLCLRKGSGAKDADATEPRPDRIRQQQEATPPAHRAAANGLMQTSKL
Outline: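 CHO-K1 cells stably expressing human SSTR5 were treated 20 min at 37 °C with compounds plus 1.6 μM NKH477 in HBSS, 0.5 mM HEPES pH 7.4, 0.1% BSA, 0.2 mM IBMX. Lysate cAMP measured by HTRF against a standard curve; EC50 from cAMP-versus-concentration plots.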

[2] = biological target: T2, human somatostatin receptor subtype 2 (Homo sapiens, UniProt P30874); assay: cAMP assay for SST2R (inhibition of cAMP in CHO-K1 cells); format: cell-based; conditions: Table B; inhibition of cAMP via human SST2 receptor; read-out: SST2 potency
T2 construct: expressed in transfected cells
T2 sequence (P30874 whole entry): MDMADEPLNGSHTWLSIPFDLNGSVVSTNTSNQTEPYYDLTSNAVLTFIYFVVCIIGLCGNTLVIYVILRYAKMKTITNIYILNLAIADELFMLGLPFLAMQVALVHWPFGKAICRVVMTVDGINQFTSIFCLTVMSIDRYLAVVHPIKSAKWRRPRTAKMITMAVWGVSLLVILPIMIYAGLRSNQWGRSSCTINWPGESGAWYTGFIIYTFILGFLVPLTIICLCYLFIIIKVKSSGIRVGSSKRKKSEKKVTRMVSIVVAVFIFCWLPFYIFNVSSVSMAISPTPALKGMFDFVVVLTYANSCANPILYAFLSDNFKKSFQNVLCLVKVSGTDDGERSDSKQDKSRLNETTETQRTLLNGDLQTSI
Outline: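 Agonism read as decrease in NKH477 (1.6 μM)-stimulated cAMP: compounds applied 20 min, 37° C, with 0.2 mM IBMX, to CHO-K1 stably expressing human SSTR2. cAMP quantified in lysates by time-resolved fluorescence (HTRF kit, 1-24 h RT), standard-curve regression, then EC50.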

Row | SMILES | EC50 ([1]; Table A) [nM] | Fold selectivity for SST5 vs SST2 ([1]; Table B) | EC50 ([1]; Table B) [nM] | EC50 [2] [nM]
1 | Cc1ncc(C(=O)N[C@@H](C)C2CC2)c(N2CC[C@](C)(N)C2)c1-c1cc(F)cc(Cl)c1 [1-125, 4-[(3S)-3-amino-3-methylpyrrolidin-1-yl]-5-(3-chloro-5-fluorophenyl)-N-[(1S)-1-cyclopropylethyl]-6-methylpyridine-3-carboxamide] | < 10 | +++ (+++=>500) | < 10 | 10 to 100
2 | CCOC(=O)COc1ncc(C(=O)NC2CCC(F)(F)CC2)c(N2CC[C@H](N)C2)c1-c1cc(F)cc(F)c1 [1-200, ethyl 2-({4-[(3S)-3-aminopyrrolidin-1-yl]-5-[(4,4-difluorocyclohexyl)carbamoyl]-3-(3,5-difluorophenyl)pyridin-2-yl}oxy)acetate] | < 10 | +++ (+++=>500) | < 10 | 100 to 1000
3 | C[C@H](NC(=O)c1cnc(OCC(=O)O)c(-c2cc(F)cc(F)c2)c1N1CC[C@](C)(N)C1)C1CC1 [1-247, 2-({4-[(3S)-3-amino-3-methylpyrrolidin-1-yl]-5-{[(1S)-1-cyclopropylethyl]carbamoyl}-3-(3,5-difluorophenyl)pyridin-2-yl}oxy)acetic acid] | < 10 | +++ (+++=>500) | < 10 | > 1000
4 | C[C@]1(N)CCN(c2c(C(=O)NC3CCCCC3)cnc(C#N)c2-c2cc(F)cc(F)c2)C1 [1-93, 4-[(3S)-3-amino-3-methylpyrrolidin-1-yl]-6-cyano-N-cyclohexyl-5-(3,5-difluorophenyl)pyridine-3-carboxamide] | < 10 | +++ (+++=>500) | < 10 | 10 to 100
5 | C[C@H](NC(=O)c1cncc(-c2ccc3cnn(C)c3c2)c1N1CC[C@](C)(N)C1)C1CC1 [1-161, 4-[(3S)-3-amino-3-methylpyrrolidin-1-yl]-N-[(1S)-1-cyclopropylethyl]-5-(1-methyl-1H-indazol-6-yl)pyridine-3-carboxamide] | < 10 | ++ (++=100 to 499) | < 10 | > 1000
6 | COc1cc(C#N)cc(-c2c(C)ncc(C(=O)NC3CC(F)(F)C3)c2N2CC[C@](C)(N)C2)c1 [1-269, 4-[(3S)-3-amino-3-methylpyrrolidin-1-yl]-5-(3-cyano-5-methoxyphenyl)-N-(3,3-difluorocyclobutyl)-6-methylpyridine-3-carboxamide] | < 10 | +++ (+++=>500) | < 10 | 100 to 1000
7 | COc1ncc(C(=O)N[C@@H](C)C2CC2)c(N2CC[C@](C)(N)C2)c1-c1cc(F)cc(C#N)c1 [1-153, 4-[(3S)-3-amino-3-methylpyrrolidin-1-yl]-5-(3-cyano-5-fluorophenyl)-N-[(1S)-1-cyclopropylethyl]-6-methoxypyridine-3-carboxamide] | < 10 | +++ (+++=>500) | < 10 | 100 to 1000
8 | Cc1cccc2[nH]c(-c3cncc(C(=O)NC4CCCCC4)c3N3CC[C@](C)(N)C3)nc12 [2-38, 4-[(3S)-3-amino-3-methylpyrrolidin-1-yl]-N-cyclohexyl-5-(4-methyl-1H-1,3-benzodiazol-2-yl)pyridine-3-carboxamide] | < 10 | + (+=10 to 99) | < 10 | 100 to 1000
9 | COc1cc(-c2c(C#N)ncc(C(=O)N[C@@H](C)C(F)(F)F)c2N2CC[C@](C)(N)C2)ccn1 [1-170, 4-[(3S)-3-amino-3-methylpyrrolidin-1-yl]-2-cyano-2′-methoxy-N-[(2S)-1,1,1-trifluoropropan-2-yl]-[3,4′-bipyridine]-5-carboxamide] | < 10 | +++ (+++=>500) | < 10 | 100 to 1000
